Assay results published in patent US20230212606A1, “COMPOSITIONS AND METHODS FOR TREATING KCNQ4-ASSOCIATED HEARING LOSS” (Akouos, Inc., priority 2020, published 2023).

Legend:
KCNQ4 [1] = experiment: SaCas9/gRNA knockdown of KCNQ4 in HEK cells, western blot, TIDE, immunofluorescence (FIG. 10); assay type: cell-based, human; conditions: western blot and immunofluorescence analyses (data not shown)
Text: The present example describes a targeting strategy that knocks out both KCNQ4 alleles and replaces wild-type KCNQ4 with a codon-optimized KCNQ4 using a SaCas9/gRNA strategy FIG. (FIG. 9). The present example also describes an in vitro analysis of KCNQ4 knockdown in HEK cells via Western blot and quantitative PCR.
The following guides were transfected with SaCas9 and KCNQ4 DNA to determine knockdown efficiency: sg233Fw (lane 2), sg386Fw (lane 3), sg408Rev (lane 4), sg447Fw(lane 5), sg482Fw (lane 6), and sg490Fw (lane 7). An untransfected control (lane 8), sgVEGF (targeting VEGF) (lane 9), and Beta-Actin expression (lanes 2-9) were used as controls. […] To expand and/or improve upon results obtained thus far, similar experiments can be performed in 3T3 cells using deadCas9 and mouse sgRNA sequences.

KCNQ4 [2] = experiment: shRNA- and CRISPR-mediated knockdown of KCNQ4 expression in HEK293 cells (FIG. 3, lanes); assay type: cell-based, human; conditions: HEK293 cells with KCNQ4 construct, N=4 biological replicates
Protocol: The following shRNA constructs and KCNQ4 constructs were tested in HEK293 cells: sh395, sh909, sh1095, sh1531, sh1593, sh1677, sh1721, and sh1827 (see FIG. 3). The following constructs were tested in HEK293 cells as a positive control (e.g., as a reference for maximum knockdown of KCNQ4 that can be achieved): SaCas9+sgRNA 447Fw+KCNQ4 (lane 11). A shVEGF construct (targeting VEGF) and KCNQ4 construct were tested in HEK293 cells as a negative control (lane 10). In addition, only the KCNQ4 construct was tested in HEK293 cells as a negative control (lane 12). […] The level of expression of KCNQ4 was most reduced by sh1827 and sgRNA 447Fw in this example. FIGS. 11 and 12 each show efficacy of knockdown with each of the shRNA constructs as well as an empty shRNA construct (“Mock”). Levels of KCNQ4 were measured using quantitative PCR, normalized to GAPDH. Two independent biological replicates were performed (FIGS. 11 and 12), each of which had three replicates per condition.

Substance | inhibition of KCNQ4 expression relative to other sgRNAs (KCNQ4 [1]) | level of expression of KCNQ4 (KCNQ4 [2])
sgRNA 386Fw: gRNA targeting KCNQ4, SEQ ID NO: 42, target AGGAGCACCAGGAACTTGCCA (expressed or natural sequence) | inhibited KNCQ4 expression more than other sgRNAs | –
sgRNA 447Fw: gRNA targeting KCNQ4, SEQ ID NO: 45, target TTTCGGCTTGGAGTACATCGT; used with SaCas9 (expressed or natural sequence) | – | most reduced
sgRNA 408Rev: gRNA targeting KCNQ4, SEQ ID NO: 43, target AAGCCGAAAACCACGATCATC (expressed or natural sequence) | inhibited KNCQ4 expression more than other sgRNAs | –
sh1827: shRNA construct targeting KCNQ4; by order probably SEQ ID NO: 55 (GGTGGATGAAATCAGCATGATCGAAATCATGCTGATTTCATCCACC) | – | most reduced
